Where “and” joins values, the source holds several entries; their conditions need not be identical. Identical values can stand only once.
Tests used:
[1] = human, microsomes
Description: Metabolic stability in human liver microsomes

[2] = in vitro; details: rat, microsomes
[3] = target: Histone deacetylase 2 (Homo sapiens, UniProt Q92769); assay: Inhibition of HDAC2 (unknown origin) incubated for 30 mins by ALIS assay
Sequence of Histone deacetylase 2 (Q92769 whole entry): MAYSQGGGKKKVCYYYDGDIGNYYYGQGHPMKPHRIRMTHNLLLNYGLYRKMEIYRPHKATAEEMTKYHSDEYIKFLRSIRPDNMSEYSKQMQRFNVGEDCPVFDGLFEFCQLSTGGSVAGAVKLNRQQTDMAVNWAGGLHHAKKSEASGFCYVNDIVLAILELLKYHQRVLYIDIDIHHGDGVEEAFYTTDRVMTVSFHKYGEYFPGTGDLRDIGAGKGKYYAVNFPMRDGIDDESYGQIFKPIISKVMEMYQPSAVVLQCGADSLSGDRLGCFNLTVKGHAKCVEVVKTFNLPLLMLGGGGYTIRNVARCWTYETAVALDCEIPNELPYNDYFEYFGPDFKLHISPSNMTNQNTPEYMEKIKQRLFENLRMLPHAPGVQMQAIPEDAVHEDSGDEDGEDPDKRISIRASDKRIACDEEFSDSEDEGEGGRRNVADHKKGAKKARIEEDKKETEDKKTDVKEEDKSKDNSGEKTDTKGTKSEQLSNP

| SMILES | Stability [1] | microsomal CLint at 0.75 h, 0.3 µM [2] [µL/min/mg] | IC50 [3] |
| --- | --- | --- | --- |
| CCCC[C@H](NC(=O)[C@H](CN)c1c[nH]c2ccc(OC)cc12)c1nc(-c2ccc(C#N)cc2)c[nH]1 | Stable | 68.9 | – |
| CCCC[C@H](NC(=O)[C@H](CN)c1c[nH]c2ccc(OC)cc12)c1nc(-c2ccc(OC)cc2)c[nH]1 | Stable | 164 | – |
| CCC(=O)CCCCC[C@H](NC(=O)C1CC2CCN1CC2)c1ncc(-c2ccccc2)[nH]1 (some centres not stated) | – | 144 | 96.8 nM |
| O=C(NCCCC[C@H](NC(=O)C1CC12CCCC2)c1ncc(-c2ccc3ccccc3c2)[nH]1)c1c(O)cccc1F (some centres not stated) | – | 811 | 441 nM and 144 nM |
| CCCC[C@H](NC(=O)[C@H](CN)c1c[nH]c2ccc(OC)cc12)c1nc(-c2ccc(C3CC(C)(C)C3)cc2)c[nH]1 | – | 110 | – |
| O=C(NCCCC[C@H](NC(=O)C1CC12CCNCC2)c1ncc(-c2ccc3ccccc3c2)[nH]1)c1c(O)cccc1F (some centres not stated) | – | 70.1 | – |
| CCCC[C@H](NC(=O)[C@H](CN)c1c[nH]c2ccc(OC)cc12)c1nc(-c2cccc(C)c2)c[nH]1 | – | 195 | – |
| CCCC[C@H](NC(=O)[C@H](CN)c1c[nH]c2ccc(OC)cc12)c1nc(-c2cc(C)cc(C)c2)c[nH]1 | – | 51 | – |
| CCCC[C@H](NC(=O)[C@H](CN)c1c[nH]c2ccc(OC)cc12)c1nc(-c2ccc(-c3ccn(C)n3)cc2)c[nH]1 | – | 83.4 | – |
| CCC(=O)CCCCC[C@H](NC(=O)CC1CN2CCC1CC2)c1ncc(-c2ccccc2)[nH]1 (some centres not stated) | – | 91.8 | 211 nM |
| CCCC[C@H](NC(=O)[C@H](CN)c1c[nH]c2ccc(OC)cc12)c1nc(-c2ccc3c(C)noc3c2)c[nH]1 | – | 192 | – |
| CCC(=O)CCCCC[C@H](NC(=O)C1CC12CCCC2)c1ncc(-c2ccccc2)[nH]1 (some centres not stated) | – | 3510 | – |
| O=C(NCCCC[C@H](NC(=O)C1CCCCC12CC2)c1ncc(-c2ccc3ccccc3c2)[nH]1)c1c(O)cccc1F (some centres not stated) | – | 805 | – |
| CC(=O)N1CC2(CC2C(=O)N[C@@H](CCCCNC(=O)c2c(O)cccc2F)c2ncc(-c3ccc4ccccc4c3)[nH]2)C1 (some centres not stated) | – | 310 | 64.5 nM |
| CCC(=O)CCCCC[C@H](NC(=O)C1CN2CCC1CC2)c1ncc(-c2ccccc2)[nH]1 (some centres not stated) | – | 134 | 146 nM |
| CS(=O)(=O)N1CC2(CC2C(=O)N[C@@H](CCCCNC(=O)c2c(O)cccc2F)c2ncc(-c3ccc4ccccc4c3)[nH]2)C1 (some centres not stated) | – | 693 | 48 nM and 12 nM |
| O=C(NCCCC[C@H](NC(=O)C1CC12CCCCC2)c1ncc(-c2ccc3ccccc3c2)[nH]1)c1c(O)cccc1F (some centres not stated) | – | 984 | 432 nM |
| O=C(NCCCC[C@H](NC(=O)C1C2COCC21)c1ncc(-c2ccc3ccccc3c2)[nH]1)c1c(O)cccc1F (some centres not stated) | – | 1150 | 45.4 nM and 89.8 nM |
| CCC(=O)CCCCC[C@H](NC(=O)C1C2CNCC21)c1ncc(-c2ccccc2)[nH]1 (some centres not stated) | – | 11.8 | 112 nM |
| CCC(=O)CCCCC[C@H](NC(=O)C1CC12CN(C(C)=O)C2)c1ncc(-c2ccccc2)[nH]1 (some centres not stated) | – | 66.8 | 423 nM |
| O=C(NCCCC[C@H](NC(=O)C1C2CCNC21)c1ncc(-c2ccc3ccccc3c2)[nH]1)c1c(O)cccc1F (some centres not stated) | – | 754 | – |
| CCC(=O)CCCCC[C@H](NC(=O)C1C2COCC21)c1ncc(-c2ccccc2)[nH]1 (some centres not stated) | Stable | 75.7 | 295 nM |
| O=C(NCCCC[C@H](NC(=O)C1C2CNCC21)c1ncc(-c2ccc3ccccc3c2)[nH]1)c1c(O)cccc1F (some centres not stated) | – | 57.5 | 37 nM |
| O=C(NCCCC[C@H](NC(=O)C1CN2CCC1CC2)c1ncc(-c2ccc3ccccc3c2)[nH]1)c1c(O)cccc1F (some centres not stated) | – | 1240 | 19.1 nM |
| CCCC[C@H](NC(=O)[C@H](CN)c1c[nH]c2ccc(OC)cc12)c1nc(-c2ccn(C)c(=O)c2)c[nH]1 | – | 9.9 | 428 nM |

Source: ChEMBL document CHEMBL6092183, “Rapid Affinity and Microsomal Stability Ranking of Crude Mixture Libraries of Histone Deacetylase Inhibitors” (ACS Med Chem Lett, 2024)
